Patent US20120195860A1, “LATENT NEURAL STEM CELL POPULATION” (priority 2007, published 2012)
Where a name gives a salt, the structure may show the parent alone.

Key:
[1] = test system: adult mouse hippocampal cells; experiment: primary neurosphere culture, hippocampus; assay type: cell-based
Method: Adult (6-8 week old) male C57/B16 mice were killed by cervical dislocation, their brains immediately removed and the hippocampus, SVZ, olfactory bulb or cortex dissected. The tissue was enzymatically digested with 0.1% trypsin-EDTA (Gibco/Invitrogen, Eugene, Oreg.) for 7 minutes at 37° C., followed by a wash with 0.014% w/v trypsin inhibitor (type I-S from soybean; Sigma-Aldrich. Australia, Sydney, Australia) dissolved in Hepes-buffered minimum essential medium (HEM), which consisted of minimum essential medium (Gibco/Invitrogen) supplemented with 16 mM HEPES (Sigma-Aldrich Australia) and 100 units/ml penicillin/streptomycin (Gibco/Invitrogene). The tissue was centrifuged at 100 rcf for 7 minutes, following which the pellet was resuspended in 1 ml neurosphere growth medium, mechanically triturated until smooth, then filtered through a 40 μm cell sieve (Falcon/BD Biosciences Australia, North Ryde, Australia). The neurosphere growth medium consisted of mouse NeuroCult™ NSC Basal Medium plus mouse NeuroCult™ NSC Proliferation Supplements (StemCell Technologies, Vancouver, Canada) with 2% bovine serum albumin (Roche, Basel, Switzerland) and 2 μg/ml heparin (Sigma-Aldrich Australia). […]

cortical cells = experiment: primary neurosphere culture, cortex; assay type: cell-based, mouse; settings: depolarization (potassium)
Method: Adult (6-8 week old) male C57/B16 mice were killed by cervical dislocation, their brains immediately removed and the hippocampus, SVZ, olfactory bulb or cortex dissected. The tissue was enzymatically digested with 0.1% trypsin-EDTA (Gibco/Invitrogen, Eugene, Oreg.) for 7 minutes at 37° C., followed by a wash with 0.014% w/v trypsin inhibitor (type I-S from soybean; Sigma-Aldrich. Australia, Sydney, Australia) dissolved in Hepes-buffered minimum essential medium (HEM), which consisted of minimum essential medium (Gibco/Invitrogen) supplemented with 16 mM HEPES (Sigma-Aldrich Australia) and 100 units/ml penicillin/streptomycin (Gibco/Invitrogene). The tissue was centrifuged at 100 rcf for 7 minutes, following which the pellet was resuspended in 1 ml neurosphere growth medium, mechanically triturated until smooth, then filtered through a 40 μm cell sieve (Falcon/BD Biosciences Australia, North Ryde, Australia). […]
The neurosphere growth medium already contained 4.18 mM KCl. […] The primary neurospheres were then counted and collected for passaging or differentiation. Results of the neurosphere counts were expressed as mean ± standard error and statistical analysis was performed using a standard t-Test (two sample assuming equal variance).

[2] = test system: cells derived from the spinal cord; experiment: activation of cells derived from the spinal cord; assay type: cell-based; settings: KCl
[3] = test system: DCX+ve / DCX-ve and PNA positive adult hippocampal cells; experiment: neurosphere assay on sorted hippocampal cells (DCX-GFP FACS, PNA binding); assay type: cell-based, mouse
Method: E14, P2 and adult brains were collected as described above and processed either whole or dissected into specific regions (olfactory bulb, cortex, cerebellum and subventricular zone (SVZ)). GFP+ve cells were separated by fluorescence-activated cell sorting (FACS) using a FACS Vantage cell sorter (BD Biosciences). A wild-type littermate control was used to determine background fluorescence levels. For primary neurosphere cultures the cells were plated at a density of 500 cells/well in 96-well plates (Falcon/BD Biosciences, San Jose, Calif.) with 0.2 ml complete medium per well. […] The primary neurospheres were then counted and collected for passaging or differentiation. Results of the neurosphere counts were expressed as mean + or − standard error and statistical analysis was performed using a standard t-Test (two sample assuming equal variance).
Mice in which the green fluorescent protein (GFP) is driven by the Doublecortin (DCX) promoter (DCX-GFP) were used for the separation of DCX^+ve cells. […] DCX-GFP^+ve and DCX-GFP^−ve cells were separated by fluorescence-activated cell sorting (FACS) using a FACS Vantage cell sorter (BD Biosciences) as described (see above). A wild-type littermate control was used to determine background fluorescence levels. Potassium was added to DCX^+ve and DCX^−ve cells at a final concentration of 15 mM and the number of neurospheres counted after 10 days.

[4] = test system: hippocampal precursors of mice that underwent SE; experiment: hippocampal neurosphere assay after status epilepticus in vivo; parameters: species or system mouse
Method: Seizures were induced in 6-8 week old C57BL/6 male mice by the administration of pilocarpine, a muscarinic cholinergic agonist. Thirty minutes prior to pilocarpine administration, the mice were injected with 2.5 mg/kg of the cholinergic antagonist scopolamine methyl nitrate (Sigma-Aldrich) to reduce peripheral cholinergic effects. They then received intraperitoneal injections of 350 mg/kg pilocarpine hydrochloride (Sigma-Aldrich). […] Seizures were stopped 2 hours after status epilepticus onset, with an intraperitoneal injection of 5 mg/kg diazepam (Patulin, Parnell Laboratories Sydney, Australia).
In addition we observed that extended depolarization, between 24 and 48 hours exposure to high level of KCl is required for the stimulation to occur in WT hippocampus confirming the need for prolonged depolarization.

[5] = test system: 33 week HD hippocampal precursors; experiment: hippocampal neurosphere assay, Huntington's disease R6/1 mice; assay type: cell-based, mouse; settings: 33 week old HD mice
From the text: R6/1 (B6CBA-TgN(HDexon1)61 Gpb/Pan) mice were originally obtained from Jackson Laboratory (Bar Harbor, Me.) and maintained by backcrossing to CBB6F1 females. For the neurosphere assays we used HD exon 1 carriers (R6/1) and aged matched wild-type littermates. Huntington's Disease is a neurodegenerative disorder that affects the striatum and cortex as well as hippocampus (Murphy et al., 2000). Previous studies have shown that older symptomatic R6/1 transgenic mice have a significant decrease in cell proliferation in the hippocampus compared to wild-type mice whereas younger pre-symptomatic R6/1 and WT mice had similar levels of proliferation (Lazic et al., 2004). […] We observed a decrease in the total number of hippocampal neuroapheres with age in WT mice that was not observed in HD mice.

## [Cl-].[K+] [KCl, potassium chloride]
[1]; 18 month old hippocampus, depolarizing conditions
  increase in number of neurospheres, stimulated compared to control: over 12 fold
[1]; potassium-induced depolarization, hippocampus
  formation of large neurospheres: stimulates the formation of increased numbers of large neurospheres
Cortical cells
  increase in neurosphere number in cortex: over 3 fold
[2]
  activation of spinal cord derived cells: activation
[3]; 15 mM potassium, 10 days
  response of DCX-ve vs DCX+ve population to high levels of potassium: it is this population, and not the DCX^+ve population, that responds
[3]; adult hippocampal cells separated by peanut agglutinin binding
  activation of PNA positive population: activated
[4]; SE at least 2 hours, sacrificed after 48 hours, potassium added in vitro
  further stimulation of precursors from SE mice by depolarizing potassium: no further stimulatory effect
[5]
  further increase of HD hippocampal precursors by potassium depolarization in vitro: could not be further increased

## CC[C@@H]1C(=O)OC[C@@H]1Cc1cncn1C [pilocarpine hydrochloride]
[4]; injections of pilocarpine hydrochloride, FIG. 8A
  activation of latent hippocampal population by induced seizures: activation
